The data set can be described thus: log P by HPLC on reversed-phase column (C18), EEC Directive 79/831 Annex V.A8. It counts as physicochemical. To be noted: for chromatographic logP: reversed-phase HPLC column (C18). The protocol:
In table 1, the log P values were determined in accordance with EEC Directive 79/831 Annex V.A8 by HPLC (High Performance Liquid Chromatography) on a reversed-phase column (C18), using the methods described below:
Method A: temperature: 40° C.; mobile phases: 0.1% aqueous formic acid and acetonitrile; linear gradient from 10% acetonitrile to 95% acetonitrile;
Method B: temperature: 40° C.; mobile phases: 0.001 molar ammonium acetate solution in water and acetonitrile; linear gradient from 10% acetonitrile to 95% acetonitrile.
Calibration was carried out using unbranched alkan-2-ones (comprising 3 to 16 carbon atoms) with known log P values (determination of the log P values by the retention times using linear interpolation between two successive alkanones). lambda-max-values were determined using UV-spectra from 200 nm to 400 nm and the peak values of the chromatographic signals.

The mark [1] stands for this setting: Method A: 40° C., 0.1% aqueous formic acid and acetonitrile.

What is called logP is a log measure of how a compound divides between an organic and an aqueous phase. A high value points to a more lipophilic compound. In the case of `C[Si](C)(C)c1ccccc1Nc1cnc2c(F)c(F)ccc2n1` [I.084], under setting [1], the logP stood at 4.49. A word on the chromatographic logP: it is lipophilicity estimated from chromatographic retention. A lower chromatographic logP goes with a more hydrophilic compound. As to `Cc1nc2c(F)c(F)ccc2cc1Oc1ccccc1[N+](=O)[O-]` [Va.04, 7,8-difluoro-2-methyl-3-(2-nitrophenoxy)quinoline], the chromatographic logP by setting is: under setting [1], 3.37; (logP Method A) 3.42. The compound `C[Si](C)(O)c1c(F)cccc1Oc1cnc2ccnn2c1` [I.121] registered a logP under setting [1] of 2.07. `CC[Si](C)(C)c1c(F)cccc1Oc1cc2ccccc2nc1C` [I.052]: the logP under setting [1] stood at 5.62. `C[Si](C)(O)c1c(F)cccc1Oc1cnc2c(F)cnn2c1` [I.127] showed a logP under setting [1] of 2.60. Turning to `Cc1nc2c(F)cccc2cc1Oc1ccccc1Br` [IIa.05, 3-(2-bromophenoxy)-8-fluoro-2-methylquinoline], under setting [1], the chromatographic logP was determined as 3.96. Regarding `C[Si](C)(O)c1ccccc1Oc1cnc2c(F)cnn2c1` [I.126], under setting [1], the logP is 2.50. The same measure, in the same setting: then `Cc1c(Nc2ccccc2[Si](C)(C)C)cc2ccccc2[n+]1[O-]` [I.058], with 3.62.

`Fc1cccc(Oc2cnc3c(F)c(F)ccc3n2)c1Br` [IIb.15] returned a logP (logP Method A) of 3.97.

Consider `C=C[Si](C)(C)c1c(F)cccc1Oc1nc2ccc(F)c(F)c2nc1C` [I.091], for which the logP under setting [1] came to 5.62. For the compound `Cc1nc2c(F)c(F)ccc2nc1Oc1cccc(OC(F)(F)F)c1Br` [IIb.23], the logP (logP Method A) was 5.08.

Consider `C=Cc1ccc(Oc2cc3ccccc3nc2C)c([Si](C)(C)C)c1` [I.137], for which, under setting [1], the logP amounted to 5.51.

`C[Si](C)(c1ccccc1)c1ccccc1Cc1cnc2cccnc2c1` [I.141] came in with a logP under setting [1] of 4.14. On the same count and under the same terms, then `Cc1nc2c(F)c(F)ccc2nc1Oc1cc(C#N)ccc1[Si](C)(C)O` [I.093], with 3.39.

Take `Cc1nc2c(F)c(F)ccc2cc1Oc1cc([N+](=O)[O-])ccc1Br` [II.06A]: under “logP Method A”, the lipophilicity (logP) was found to be 4.04. `Cc1c(Oc2cccc(F)c2[Si](C)(C)C)cnc2ccccc12` [I.042] yielded a logP under setting [1] of 5.62. With `C[Si](C)(c1ccc(Cl)cc1)c1ccccc1CBr` [XIa.06, [2-(bromomethyl)phenyl](4-chlorophenyl)dimethylsilane], the chromatographic logP by setting is: under setting [1], 5.94; (logP Method A) 5.94. `C[Si](C)(O)c1ccccc1Oc1cnc2ccccc2c1` [I.002] gave a logP under setting [1] of 2.82. On to `Fc1cccc(Oc2cnc3ccccc3c2)c1` [VIIa.05, 3-(3-fluorophenoxy)quinoline], for which the chromatographic logP under setting [1] was determined as 3.21 and the chromatographic logP (logP Method A) was found to be 3.21.

Compound `Cc1nc2ccccc2cc1Oc1cccc(CCO)c1Br` [II.03A] came in with a chromatographic logP (logP Method A) of 2.14. `Cc1nc2c(F)c(F)ccc2nc1Oc1ccc(Cl)cc1[Si](C)(C)O` [I.102] displayed a logP under setting [1] of 4.01. In the case of `Cc1cccc(Oc2nc3ccc(F)c(F)c3nc2C)c1Br` [IIb.12], the logP (logP Method A) is 4.85. On to `OC(c1cccc(F)c1)c1cnc2ccccc2c1` (centres unmarked) [VII.01A], for which the chromatographic logP (logP Method A) stood at 1.54. `Cc1ccc([Si](C)(C)O)c(Oc2nc3ccc(F)c(F)c3nc2C)c1` [I.097]: under setting [1], the logP came to 3.76. For `Cc1nc2c(F)c(F)ccc2cc1Oc1cccc(F)c1N` [IVa.06], the logP (logP Method A) came to 3.27.

As for `Cc1nc2c(F)c(F)ccc2cc1Oc1ccc(F)cc1[Si](C)(C)O` [I.037], under setting [1], the logP is on record as 3.55. Under “logP Method A”, `C[Si](C)(c1ccccc1)c1ccccc1CBr` [XIa.03] yielded a logP of 5.46. With `C[Si](C)(C)c1c(F)cccc1Oc1cc2ccccc2nc1C(F)F` [I.065], the logP under setting [1] was 5.45.

Regarding `C[Si](C)(Cc1ccccc1)c1ccccc1O` [IXa.06], the logP (logP Method A) turned out to be 5.14. For `C[Si](C)(O)c1c(F)cccc1Oc1cnc2ccsc2c1` [I.117], under setting [1], the logP was 2.80.

In turn, `Cc1nc2c(F)c(F)ccc2nc1Oc1c(F)cccc1Br` [IIb.04] had a logP (logP Method A) of 2.67. Where the note is “logP Method A”, `O=[N+]([O-])c1ccccc1Oc1cnc2c(F)c(F)ccc2c1` [Va.03] showed a logP of 3.06.

In turn, `CC[Si](C)(C)c1ccccc1Oc1cnc2c(F)c(F)ccc2n1` [I.077] registered a logP under setting [1] of 5.62.

Take `C[Si](C)(O)c1c(F)cccc1Oc1cnc2c(F)c(F)ccc2c1` [I.022]: the logP under setting [1] is 2.35. On the same count and under the same terms, to `C[Si](C)(C)c1c(F)cccc1[S+]([O-])c1cnc2ccccc2c1` (centres unmarked) [I.132] belongs 3.63.

Take `Cc1c(Oc2cccc(F)c2Br)cnc2ccccc12` [IIa.17, 3-(2-bromo-3-fluorophenoxy)-4-methylquinoline]: under setting [1], the chromatographic logP came to 3.89.

With `C[Si](C)(C)c1ccccc1Oc1cnc2c(F)c(F)ccc2n1` [I.079], the logP under setting [1] is 5.28. The compound `C[Si](C)(C)c1c(F)cccc1Oc1cc2ccccc2nc1Cl` [I.063] came in with a logP under setting [1] of 5.90.

For `Cc1cccc([Si](C)(C)C)c1Oc1nc2ccc(F)c(F)c2nc1C` [I.107], under setting [1], the logP was found to be 5.88. As for `C[Si](C)(C)c1c(F)cccc1Oc1cnc2c(F)c(F)ccc2n1` [I.078], under setting [1], the logP was 5.20.

As to `C[Si](C)(O)c1c(F)cccc1Oc1cnc2c(F)c(F)ccc2n1` [I.082], under setting [1], the logP was 3.33. Regarding `Cc1nc2ccccc2cc1Oc1cccc(F)c1[Si](C)(C)C` [I.046], the logP under setting [1] is listed as 5.08. On to `C[Si](C)(c1ccc(Cl)cc1)c1ccccc1Cc1cnc2ccccc2c1` [I.014, 3-{2-[(4-chlorophenyl)(dimethyl)silyl]benzyl}quinoline], for which, under setting [1], the chromatographic logP is 4.74.

In turn, `C[Si](C)(Cc1ccccc1)c1ccccc1Cc1cnc2ccccc2c1` [I.142] gave a lipophilicity (logP) under setting [1] of 4.94.

`C[Si](C)(C)c1ccccc1Oc1cnc2nccn2c1` [I.124]: the logP under setting [1] is 2.78.

For `Cc1cccc([Si](C)(C)O)c1Oc1nc2ccc(F)c(F)c2nc1C` [I.104], under setting [1], the logP is recorded as 3.73. For the setting “logP Method A”, `CCOc1nc2ccccc2cc1Oc1cccc(F)c1` [VIIa.02] returned a logP of 4.74. `Cc1nc2ccccc2nc1Oc1cccc(F)c1Br` [IIb.17]: for the setting “logP Method A”, the logP was 4.11. With `[O-][n+]1cc(Oc2cccc(F)c2)cc2ccccc21` [VIIa.06, 3-(3-fluorophenoxy)quinoline 1-oxide], the chromatographic logP is, setting by setting: under setting [1], 2.14; (logP Method A) 2.14. Take `C[Si](C)(C)c1ccccc1Oc1cnc2c(F)cnn2c1` [I.129]: the logP under setting [1] is reported as 4.56. Compound `Cc1nc2c(F)c(F)ccc2cc1Oc1cccc(OC(F)(F)F)c1Br` [IIa.24, 3-[2-bromo-3-(trifluoromethoxy)phenoxy]-7,8-difluoro-2-methylquinoline] returned a chromatographic logP under setting [1] of 4.9. As for `Cc1nc2ccccc2cc1Oc1cccc(F)c1[SiH](C)C` [I.053], the logP under setting [1] is reported as 4.56.

`Cc1nc2ccccc2cc1Oc1ccccc1[N+](=O)[O-]` [Va.08] showed a logP (logP Method A) of 2.64. Under setting [1], `Cc1nc2ccccc2cc1Oc1cccc(Cl)c1[Si](C)(C)O` [I.051] gave a logP of 2.80. With `C[SiH](c1ccccc1)c1c(Oc2cccc(F)c2)c(Cl)nc2ccccc12` (centres unmarked) [2-chloro-3-(3-fluorophenoxy)-4-[methyl(phenyl)silyl]quinoline], the chromatographic logP under setting [1] worked out at 5.9. Regarding `Cc1nc2c(F)c(F)ccc2nc1Oc1cccc(F)c1[Si](C)(C)C` [I.088], the logP under setting [1] is reported as 5.65.

In the case of `C=C[Si](C)(C)c1c(F)cccc1Oc1cnc2ccccc2c1` [I.006], under setting [1], the logP is 5.24. `Cc1nc2c(F)c(F)ccc2nc1Oc1cc(F)ccc1[Si](C)(C)C` [I.108] gave a logP under setting [1] of 5.57. On to `CC[Si](C)(C)c1ccccc1Oc1cnc2c(c1)CCCC2` [I.041], for which the logP under setting [1] is reported as 3.68. Turning to `Fc1cccc(Nc2cc3ccccc3nc2C(F)F)c1` [VII.03A], the chromatographic logP (logP Method A) stood at 3.68. As for `CSc1nc2ccccc2cc1Oc1cccc(F)c1[Si](C)(C)C` [I.064], the logP under setting [1] was 6.79.

With `C[Si](C)(O)c1ccccc1Oc1cnc2ccccc2n1` [I.070], under setting [1], the logP is reported as 2.86.

In turn, `Cc1nc2c(F)c(F)ccc2nc1Oc1cccc(Cl)c1Br` [IIb.18] returned a logP (logP Method A) of 4.82.

Turning to `CC[Si](CC)(CC)c1ccccc1Oc1cnc2ccccc2n1` [I.074], under setting [1], the logP is 6.43. In turn, `C[Si](C)(C)c1ccccc1Cc1cnc2ccccc2c1` [I.012] gave a logP under setting [1] of 4.06. Still for that read-out and setting: to `Cc1ccc(Oc2nc3ccc(F)c(F)c3nc2C)c([Si](C)(C)O)c1` [I.099] belongs 3.85; to `Cc1nc2c(F)c(F)ccc2nc1Oc1c(Cl)cccc1[Si](C)(C)O` [I.103], 3.96.

Regarding `Cc1nc2c(F)c(F)ccc2cc1Oc1ccc(F)cc1Br` [IIa.12, 3-(2-bromo-4-fluorophenoxy)-7,8-difluoro-2-methylquinoline], the chromatographic logP under setting [1] was 4.25. As to `Cc1nc2c(F)c(F)ccc2cc1Oc1cccc(F)c1Br` [IIa.16, 3-(2-bromo-3-fluorophenoxy)-7,8-difluoro-2-methylquinoline], the chromatographic logP under setting [1] is 4.29. Under setting [1], `C[Si](C)(C)c1c(F)cccc1Sc1cnc2ccccc2c1` [I.131] came in with a logP of 5.72. For `Cc1nc2c(F)c(F)ccc2nc1Oc1cccc(F)c1[Si](C)(C)F` [I.092], under setting [1], the logP is listed as 4.75. In turn, `Cc1nc2ccccc2nc1Oc1cccc(F)c1[Si](C)(C)c1ccccc1` [I.115] gave a logP under setting [1] of 5.59. For `Cc1nc2ccccc2cc1Oc1ccc(F)cc1Br` [IIa.13, 3-(2-bromo-4-fluorophenoxy)-2-methylquinoline], the chromatographic logP under setting [1] is 3.35. `Cc1nc2c(F)c(F)ccc2nc1Oc1ccc(F)cc1Br` [IIb.10] had a logP (logP Method A) of 4.54. As to `C[Si](C)(C)c1c(F)cccc1Oc1cnc2c(F)cnn2c1` [I.128], the logP under setting [1] worked out at 4.61. For the compound `C[Si](C)(C)c1ccccc1Oc1cnc2ccccc2n1` [I.068], the logP under setting [1] is listed as 5.05.

The values above are taken from patent publication US10683311B2 (priority 2015, dated 2020).
